Reference: patent US12054449B2, “Phenylcarbamate crystalline form and method for manufacturing the same” (BIO-PHARM SOLUTIONS CO., LTD., priority 2021, dated 2024)

Key:
[1] = Competitive slurry experiment for Pattern 1 and Pattern 3; assay type: physicochemical; settings: 4 days
Experimental: To investigate the relative thermodynamic stability of various crystalline form patterns at room temperature and 50° C., competitive slurry experiments were carried out.
A mixture of Pattern 1 and Pattern 3 (ED01748-028-003-00, 4×20 mg) was dispensed into vials. They were treated with 250 μL of a saturated solution of Pattern 1 (ED01748-006-001-00) in DIPE or heptane (50 mg of ED01748-006-001-00 was treated with DIPE or heptane and heated at 50° C., a portion was removed as needed, and the resulting product was filtered through a 0.45 μm syringe filter, thereby forming a slurry). The produced slurry was stirred at room temperature or 50° C. After analysis, the solid was returned to the vial, and an additional saturated solution was added as needed to maintain the slurry. After 4 days, the purity of the material was confirmed by UPLC.

[2] = Change of crystalline form on standing or drying (XRPD); assay type: physicochemical
Experimental: XRPD patterns were detected by CuKα irradiation (30 kV, 10 mA) using a Bruker AXS D2 diffractometer. The analysis was performed using θ-θ geometry and a LynxEye detector at 5 to 42° 2θ with a step size of 0.024° 2θ at 0.1 sec/step.
Samples were run at ambient conditions and prepared as flat specimens using powder received without grinding. About 1 to 2 mg of the sample was lightly pressed on a silicon wafer to obtain a flat surface.

C[C@H](OC(N)=O)[C@@H](O)c1ccccc1Cl [ED01748-028-003-00, 1-(2-chlorophenyl)-(S)-1-hydroxypropyl-(S)-2-carbamate]
UPLC purity of slurry material after 4 days ([1]; DIPE samples, RT and 50° C.): 98% | UPLC purity of slurry material after 4 days ([1]; heptane sample): 98.5%

C[C@H](OC(N)=O)[C@@H](O)c1ccccc1Cl [Pattern 8, 1-(2-chlorophenyl)-(S)-1-hydroxypropyl-(S)-2-carbamate]
Change on standing ([2]; Pattern 8 from chloroform and heptane): observed to change on standing | change on standing o/n ([2]; solid from Exp. 10, chloroform/Heptane): No change | change on standing o/n ([2]; solid from Exp. 14, DCM/Heptane): Small

C[C@H](OC(N)=O)[C@@H](O)c1ccccc1Cl [Pattern 9, 1-(2-chlorophenyl)-(S)-1-hydroxypropyl-(S)-2-carbamate]
change on standing o/n ([2]; solid from Exp. 9, chloroform/Toluene): No change | change on standing o/n ([2]; solid from Exp. 13, DCM/Toluene): No change

C[C@H](OC(N)=O)[C@@H](O)c1ccccc1Cl [Pattern 6, 1-(2-chlorophenyl)-(S)-1-hydroxypropyl-(S)-2-carbamate]
Form conversion by XRPD ([2]; Pattern 6 material from anisole, stood overnight): converted to a mixture of Pattern 6 and Pattern 1 | Form conversion by XRPD ([2]; Pattern 6 material from toluene): converted to a mixture of Pattern 6 and Pattern 3

C[C@H](OC(N)=O)[C@@H](O)c1ccccc1Cl [Pattern 7, 1-(2-chlorophenyl)-(S)-1-hydroxypropyl-(S)-2-carbamate]
Behaviour on standing [2]: variable behaviour on standing

C[C@H](OC(N)=O)[C@@H](O)c1ccccc1Cl [Pattern 4, 1-(2-chlorophenyl)-(S)-1-hydroxypropyl-(S)-2-carbamate]
Change in form by XRPD on drying ([2]; brief drying whilst standing in the open vial): change in form by XRPD from Pattern 4 to a mixture of Pattern 1 and Pattern 3
